Source: PubChem BioAssay AID248 (DTP/NCI, 2004)
Values joined by “and” are separate entries in the source; they are usually repeats but may differ in a detail not shown here. Identical values can stand only once. Inconclusive results and toxic doses are left out.

Tested on: L1210 leukemia ip in BDF1 mice, survival T/C
Experiment: NCI In Vivo Anticancer Drug Screen. Data for tumor model L1210 Leukemia (intraperitoneal) in B6D2F1 (BDF1) mice
Conditions: endpoint: mean survival time, higher = longer survival
How it was run: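 Survival endpoint. Drug-treated group vs vehicle group, expressed as T divided by C. Tumor passaged by transplantation.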

SMILES: CC(=O)OCC1OC(n2ccc(N)nc2=O)C(OC(C)=O)C1OC(C)=O (centres undefined)
- T/C (dose: 6.3 mg/kg/injection, schedule: Q01DX015 (oral), vehicle: carboxymethylcellulose (CMC)): 117 % of control
- T/C (dose: 6.6 mg/kg/injection, schedule: Q03HX024 (ip), vehicle: carboxymethylcellulose (CMC)): 156 % of control
- T/C (dose: 10.0 mg/kg/injection, schedule: Q01DX015 (ip), vehicle: saline): 101 % of control
- T/C (dose: 11.0 mg/kg/injection, schedule: Q03HX008 (ip), vehicle: carboxymethylcellulose (CMC)): 121 % of control
- T/C (dose: 11.0 mg/kg/injection, schedule: Q03HX024 (ip), vehicle: carboxymethylcellulose (CMC)): 184 % of control
- T/C (dose: 12.5 mg/kg/injection, schedule: Q01DX015 (oral), vehicle: carboxymethylcellulose (CMC)): 116 % of control
- T/C (dose: 15.0 mg/kg/injection, schedule: Q01DX015 (ip), vehicle: saline): 117 % of control
- T/C (dose: 18.0 mg/kg/injection, schedule: Q03HX024 (ip), vehicle: carboxymethylcellulose (CMC)): 207 % of control
- T/C (dose: 23.0 mg/kg/injection, schedule: Q01DX015 (ip), vehicle: saline): 124 % of control
- T/C (dose: 25.0 mg/kg/injection, schedule: Q01DX015 (oral), vehicle: carboxymethylcellulose (CMC)): 122 % of control
- T/C (dose: 30.0 mg/kg/injection, schedule: Q03HX024 (ip), vehicle: carboxymethylcellulose (CMC)): 246 % of control
- T/C (dose: 35.0 mg/kg/injection, schedule: Q01DX015 (ip), vehicle: saline): 150 % of control and 168 % of control
- T/C (dose: 37.0 mg/kg/injection, schedule: Q01DX009 (oral), vehicle: water): 123 % of control
- T/C (dose: 37.0 mg/kg/injection, schedule: Q## X024 (oral), vehicle: water): 100 % of control
- T/C (dose: 50.0 mg/kg/injection, schedule: Q01DX009 (ip), vehicle: saline): 153 % of control
- T/C (dose: 50.0 mg/kg/injection, schedule: Q01DX009 (ip), vehicle: water): 171 % of control
- T/C (dose: 50.0 mg/kg/injection, schedule: Q01DX009 (sc), vehicle: water): 158 % of control
- T/C (dose: 51.0 mg/kg/injection, schedule: Q01DX009 (ip), vehicle: carboxymethylcellulose (CMC)): 180 % of control
- T/C (dose: 51.0 mg/kg/injection, schedule: Q03HX008 (ip), vehicle: carboxymethylcellulose (CMC)): 157 % of control
- T/C (dose: 55.0 mg/kg/injection, schedule: Q01DX015 (ip), vehicle: saline): 201 % of control
- T/C (dose: 75.0 mg/kg/injection, schedule: Q01DX005 (oral), vehicle: water): 121 % of control
- T/C (dose: 75.0 mg/kg/injection, schedule: Q01DX009 (oral), vehicle: water): 117 % of control
- T/C (dose: 86.0 mg/kg/injection, schedule: Q01DX009 (ip), vehicle: carboxymethylcellulose (CMC)): 213 % of control
- T/C (dose: 100.0 mg/kg/injection, schedule: Q01DX005 (ip), vehicle: saline): 154 % of control and 164 % of control
- T/C (dose: 100.0 mg/kg/injection, schedule: Q01DX009 (ip), vehicle: saline): 222 % of control
- T/C (dose: 100.0 mg/kg/injection, schedule: Q01DX009 (ip), vehicle: water): 235 % of control
- T/C (dose: 100.0 mg/kg/injection, schedule: Q01DX009 (sc), vehicle: water): 205 % of control
- T/C (dose: 100.0 mg/kg/injection, schedule: Q01DX011 (oral), vehicle: water): 156 % of control and 175 % of control
- T/C (dose: 125.0 mg/kg/injection, schedule: Q01DX015 (ip), vehicle: saline): 314 % of control
- T/C (dose: 150.0 mg/kg/injection, schedule: Q01DX001 (ip), vehicle: water): 114 % of control
- T/C (dose: 150.0 mg/kg/injection, schedule: Q01DX001 (sc), vehicle: water): 150 % of control
- T/C (dose: 150.0 mg/kg/injection, schedule: Q01DX005 (oral), vehicle: water): 112 % of control
- T/C (dose: 150.0 mg/kg/injection, schedule: Q## X003 (oral), vehicle: water): 120 % of control
- T/C (dose: 150.0 mg/kg/injection, schedule: Q## X024 (oral), vehicle: water): 104 % of control and 113 % of control
- T/C (dose: 200.0 mg/kg/injection, schedule: Q01DX005 (ip), vehicle: saline): 190 % of control and 198 % of control
- T/C (dose: 200.0 mg/kg/injection, schedule: Q01DX009 (ip), vehicle: saline): 109 % of control
- T/C (dose: 200.0 mg/kg/injection, schedule: Q01DX009 (ip), vehicle: water): 88 % of control
- T/C (dose: 200.0 mg/kg/injection, schedule: Q01DX009 (sc), vehicle: water): 95 % of control
- T/C (dose: 200.0 mg/kg/injection, schedule: Q01DX011 (oral), vehicle: water): 201 % of control
- T/C (dose: 250.0 mg/kg/injection, schedule: Q01DX001 (ip), vehicle: saline): 116 % of control
- T/C (dose: 250.0 mg/kg/injection, schedule: Q01DX015 (ip), vehicle: saline): 86 % of control
- T/C (dose: 300.0 mg/kg/injection, schedule: Q01DX001 (ip), vehicle: water): 118 % of control
- T/C (dose: 300.0 mg/kg/injection, schedule: Q01DX001 (oral), vehicle: water): 103 % of control and 108 % of control
- T/C (dose: 300.0 mg/kg/injection, schedule: Q01DX005 (oral), vehicle: water): 184 % of control
- T/C (dose: 300.0 mg/kg/injection, schedule: Q01DX009 (oral), vehicle: water): 167 % of control
- T/C (dose: 300.0 mg/kg/injection, schedule: Q07DX004 (oral), vehicle: water): 103 % of control
- T/C (dose: 300.0 mg/kg/injection, schedule: Q## X006 (oral), vehicle: water): 108 % of control
- T/C (dose: 300.0 mg/kg/injection, schedule: Q## X008 (oral), vehicle: water): 112 % of control
- T/C (dose: 300.0 mg/kg/injection, schedule: Q## X024 (oral), vehicle: water): 113 % of control
- T/C (dose: 400.0 mg/kg/injection, schedule: Q01DX011 (oral), vehicle: water): 179 % of control
- T/C (dose: 600.0 mg/kg/injection, schedule: Q01DX001 (oral), vehicle: water): 108 % of control and 114 % of control
- T/C (dose: 600.0 mg/kg/injection, schedule: Q01DX005 (oral), vehicle: water): 153 % of control
- T/C (dose: 600.0 mg/kg/injection, schedule: Q01DX009 (oral), vehicle: water): 185 % of control
- T/C (dose: 600.0 mg/kg/injection, schedule: Q07DX004 (oral), vehicle: water): 107 % of control
- T/C (dose: 600.0 mg/kg/injection, schedule: Q## X003 (oral), vehicle: water): 153 % of control
- T/C (dose: 600.0 mg/kg/injection, schedule: Q## X006 (oral), vehicle: water): 114 % of control
- T/C (dose: 600.0 mg/kg/injection, schedule: Q## X024 (oral), vehicle: water): 120 % of control
- T/C (dose: 660.0 mg/kg/injection, schedule: Q04DX003 (ip), vehicle: carboxymethylcellulose (CMC)): 214 % of control
- T/C (dose: 800.0 mg/kg/injection, schedule: Q01DX011 (oral), vehicle: water): 121 % of control
- T/C (dose: 1000.0 mg/kg/injection, schedule: Q01DX001 (ip), vehicle: saline): 164 % of control
- T/C (dose: 1099.0 mg/kg/injection, schedule: Q01DX001 (ip), vehicle: carboxymethylcellulose (CMC)): 160 % of control
- T/C (dose: 1099.0 mg/kg/injection, schedule: Q04DX003 (ip), vehicle: carboxymethylcellulose (CMC)): 244 % of control
- T/C (dose: 1200.0 mg/kg/injection, schedule: Q01DX001 (oral), vehicle: water): 115 % of control and 121 % of control
- T/C (dose: 1200.0 mg/kg/injection, schedule: Q01DX005 (oral), vehicle: water): 153 % of control and 180 % of control
- T/C (dose: 1200.0 mg/kg/injection, schedule: Q01DX015 (oral), vehicle: carboxymethylcellulose (CMC)): 100 % of control
- T/C (dose: 1200.0 mg/kg/injection, schedule: Q07DX004 (oral), vehicle: water): 119 % of control
- T/C (dose: 1200.0 mg/kg/injection, schedule: Q## X003 (oral), vehicle: water): 185 % of control
- T/C (dose: 1832.0 mg/kg/injection, schedule: Q01DX001 (ip), vehicle: carboxymethylcellulose (CMC)): 156 % of control
- T/C (dose: 1832.0 mg/kg/injection, schedule: Q04DX003 (ip), vehicle: carboxymethylcellulose (CMC)): 228 % of control
- T/C (dose: 2400.0 mg/kg/injection, schedule: Q01DX001 (oral), vehicle: water): 109 % of control
- T/C (dose: 2400.0 mg/kg/injection, schedule: Q07DX004 (oral), vehicle: water): 123 % of control
- T/C (dose: 2400.0 mg/kg/injection, schedule: Q## X003 (oral), vehicle: water): 189 % of control
- T/C (dose: 2400.0 mg/kg/injection, schedule: Q## X006 (oral), vehicle: water): 181 % of control

SMILES: CN(C)/C=C/C(=O)c1ccccc1[N+](=O)[O-]
- T/C (dose: 100.0 mg/kg/injection, schedule: Q01DX009 (ip), vehicle: Klucel (hydroxypropylcellulose) (HPC)): 97 % of control
- T/C (dose: 100.0 mg/kg/injection, schedule: Q04DX003 (ip), vehicle: Klucel (hydroxypropylcellulose) (HPC)): 100 % of control
- T/C (dose: 200.0 mg/kg/injection, schedule: Q01DX009 (ip), vehicle: Klucel (hydroxypropylcellulose) (HPC)): 100 % of control
- T/C (dose: 200.0 mg/kg/injection, schedule: Q04DX003 (ip), vehicle: Klucel (hydroxypropylcellulose) (HPC)): 105 % of control
- T/C (dose: 400.0 mg/kg/injection, schedule: Q01DX009 (ip), vehicle: Klucel (hydroxypropylcellulose) (HPC)): 103 % of control
- T/C (dose: 400.0 mg/kg/injection, schedule: Q04DX003 (ip), vehicle: Klucel (hydroxypropylcellulose) (HPC)): 100 % of control
